# Where two headings read alike, the source gives them in different places.
# Assays:
# L6 rat myoblast cells = test: Oxygen consumption rate; details: for uncoupling activity (in words): OCR in L6 rat myoblast cells
# [1] = use in humans; cited from earlier work
# STAM mouse model of NASH [2] = test: STAM; assay type: in vivo, mice; details: SHS4121705 25 mg kg−1 d−1 in food
# [3] = Core body temperature after acute oral dose; assay type: in vivo; details: acute oral dose 5, 20, 50 mg/kg, up to 4 h, C57BL/6 male mice; listed as SHS4121705
# STAM mouse model of NASH [4] = details: STZ-induced mouse model of NASH; cited from earlier work
smiles,measurement,setting,value
"Oc1nccnc1Nc1ccccc1F [16a, 3-((2-Fluorophenyl)amino)pyrazin-2-ol]",uncoupling activity (in words),L6 rat myoblast cells,inactive
"CCCCCCCCCCc1ccc(Nc2nccnc2O)cc1 [16b, 3-((4-Decylphenyl)amino)pyrazin-2-ol]",uncoupling activity (in words),L6 rat myoblast cells,inactive
"CN(c1ccccc1F)c1nc2nonc2nc1O [12ae, 6-((2-Fluorophenyl)(methyl)amino)-[1,2,5]oxadiazolo[3,4-b]pyrazin-5-ol]",uncoupling activity (in words),L6 rat myoblast cells,completely devoid of uncoupling activity
"Oc1nc2nonc2nc1Nc1ccc(C(F)(F)F)c(F)c1 [12v, 6-((3-Fluoro-4-(trifluoromethyl)phenyl)amino)-[1,2,5]oxadiazolo[3,4-b]pyrazin-5-ol]",fold less potent than 12i,L6 rat myoblast cells; OCR EC50 relative to 12i,> 2 fold
"Oc1nc2nonc2nc1Nc1ccccc1F [12a, 6-((2-Fluorophenyl)amino)-[1,2,5]oxadiazolo[3,4-b]pyrazin-5-ol]",loss of potency,L6 rat myoblast cells; OCR EC50 of 12a compared with parent diamine uncoupler,40 ×
"O=[N+]([O-])c1ccc(O)c([N+](=O)[O-])c1 [DNP, 2,4-dinitrophenol]",increase in metabolism,[1],> 50%
"Oc1nccnc1Nc1ccc(-c2ccc(F)cc2)cc1 [16h, 3-((4′-Fluoro-[1,1′-biphenyl]-4-yl)amino)pyrazin-2-ol]",uncoupling activity (in words),L6 rat myoblast cells,inactive
"COc1nc2nonc2nc1Nc1ccc(OC(F)(F)F)cc1 [compound 13, 6-Methoxy-N-(4-(trifluoromethoxy)phenyl)-[1,2,5]oxadiazolo[3,4-b]pyrazin-5-amine]",uncoupling activity (in words),L6 rat myoblast cells,significantly abrogated
"COc1cccc(-c2ccc(Nc3nccnc3O)cc2)c1 [16g, 3-((3′-Methoxy-[1,1′-biphenyl]-4-yl)amino)pyrazin-2-ol]",uncoupling activity (in words),L6 rat myoblast cells,inactive
"Oc1nc2nonc2nc1Nc1ccc(OC(F)(F)F)cc1 [12i, 6-((4-(Trifluoromethoxy)phenyl)amino)-[1,2,5]oxadiazolo[3,4-b]pyrazin-5-ol]",ballooning score,STAM mouse model of NASH [2]; 21 days,0.25 ± 0.16
same,inflammation score,STAM mouse model of NASH [2]; 21 days,2.38 ± 0.18
same,steatosis score,STAM mouse model of NASH [2]; 21 days,0 ± 0
same,NAS score (NAFLD activity score),"STAM mouse model of NASH [2]; liver, day 21",2.63 ± 0.18
same,effect on core body temperature,[3],no effect
Fc1cccc(Nc2nc3nonc3nc2Nc2ccccc2F)c1 [compound 9],fibrosis score,STAM mouse model of NASH [4],reduced
same,inflammation score,STAM mouse model of NASH [4],reduced
same,liver triglyceride levels,STAM mouse model of NASH [4],lowered

# Reference: publication PMC11042500 (Journal of medicinal chemistry, 2020)
